Experimental data reported in the supplement of paper PMC3937590.

Key:
Test in all cases: -log10 GI50 (growth inhibition 50%) (-log10(M)); higher = more potent growth inhibition
HS578T = system: HS578T
Method in brief: (§1)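 Breast cancer cell lines were treated with each compound for 72 hours at nine doses in 1:5 serial dilution, in triplicate, and luminescence was read against a time-zero plate. A Gompertz curve was fitted to the dose-response data by nonlinear least squares to obtain GI50, the molar concentration giving the set level of growth inhibition, which is reported as its negative logarithm. The logarithm is base 10, and values equal to the top dose carry a < qualifier.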

ZR7530 = system: ZR7530
Method in brief: as §1

MDAMB134VI = system: MDAMB134VI
Method in brief: as §1

HCC202 = system: HCC202
Method in brief: as §1

MDAMB468 = system: MDAMB468
Method in brief: as §1

T4 = system: T4
Method in brief: as §1

SUM185PE = system: SUM185PE
Method in brief: as §1

HCC1187 = system: HCC1187
Method in brief: as §1

S1 = system: S1
Method in brief: as §1

HCC1569 = system: HCC1569
Method in brief: as §1

HCC1395 = system: HCC1395
Method in brief: as §1

MDAMB436 = system: MDAMB436
Method in brief: as §1

HBL100 = system: HBL100
Method in brief: as §1

UACC893 = system: UACC893
Method in brief: as §1

MCF10F = system: MCF10F
Method in brief: as §1

CAMA1 = system: CAMA1
Method in brief: as §1

SUM102PT = system: SUM102PT
Method in brief: as §1

BT20 = system: BT20
Method in brief: as §1

| Compound | -log10 GI50 (HS578T) | -log10 GI50 (ZR7530) | -log10 GI50 (MDAMB134VI) | -log10 GI50 (HCC202) | -log10 GI50 (MDAMB468) | -log10 GI50 (T4) | -log10 GI50 (SUM185PE) | -log10 GI50 (HCC1187) | -log10 GI50 (S1) | -log10 GI50 (HCC1569) | -log10 GI50 (HCC1395) | -log10 GI50 (MDAMB436) | -log10 GI50 (HBL100) | -log10 GI50 (UACC893) | -log10 GI50 (MCF10F) | -log10 GI50 (CAMA1) | -log10 GI50 (SUM102PT) | -log10 GI50 (BT20) |
| --- | --- | --- | --- | --- | --- | --- | --- | --- | --- | --- | --- | --- | --- | --- | --- | --- | --- | --- |
| CC(=O)Nc1cccc(-n2c(=O)n(C3CC3)c(=O)c3c(Nc4ccc(I)cc4F)n(C)c(=O)c(C)c32)c1 | 7.47 | < 4.78 | 8.33 | 6.28 | 4.84 | 9 | 4.9 | < 4.78 | 8.31 | < 4.78 | 6.71 | 4.81 | < 4.78 | 5.77 | 8.06 | < 4.78 |  |  |
| CC(C)Oc1ccc(C(=O)N[C@H](CNC(=O)CN(C)C)Cc2ccc(-c3cn4cccc([C@H](C)O)c4n3)cc2)cc1Cl | 7.32 | 7.68 | 6.52 | 7.76 | 7.61 | 7.2 | 5.43 | 7.52 | 6.37 | 6.59 | 7.35 | 7.92 | 7.33 | 7.7 | 6.29 | 7.33 | 5.18 |  |
| CCNCCCNC/C=C\CNCCCNCC | 4.54 | < 2.3 | 2.97 | 4.75 |  | 4.76 | < 3.3 | 3.16 | 5.46 | 3.71 | 4.09 | 3.43 | 2.94 | 3.63 | 3.76 | 2.91 | 5.98 |  |
| CCn1cc(-c2ccnc3[nH]c(-c4cccc(CN(C)C)c4)cc23)c(-c2ccc(NC(=O)N(C)C)cc2)n1 | 6.42 |  | 5.59 | 6.03 | 7.89 | 6.63 | 5.95 | 7.95 | 6.36 | 6.17 | 5.27 | 7.19 | 7.15 | 5.06 | 5.69 | 5.05 | 5.52 |  |
| C[C@@H](Oc1cc(-n2cnc3ccc(CN4CCN(C)CC4)cc32)sc1C(N)=O)c1ccccc1C(F)(F)F | 7.71 | 5.21 | 7.83 | 8.99 | 8.41 | 7.88 | 5.71 | 7.48 | 7.95 | 7.05 | 8.37 | 7.86 | 8.7 | 8.15 | 7.11 | 5.17 | 5.38 |  |
| O=C1NC(=O)/C(=C/c2ccc3nccc(-c4ccncc4)c3c2)S1 | 5.74 | 6.82 | 6.33 | 7.31 | 6.03 | 7.31 | 7.13 | 6.84 | 7.04 | 5.94 | 5.61 | 6.09 | 5.42 | 7.24 | 6.71 | 5.77 |  |  |
| C=CCNC1=C2C[C@@H](C)C[C@H](OC)[C@H](O)[C@@H](C)/C=C(\C)[C@H](OC(N)=O)[C@@H](OC)/C=C\C=C(/C)C(=O)NC(=CC1=O)C2=O [17-AAG] | 6.96 |  | 7.42 | 8.27 | 5.64 |  | 7.47 | 5.29 | 6.89 | 6.84 | 6.54 | 5.96 | 5.97 | 7.77 | 7.5 | 6.6 |  |  |
| COc1cc2ncnc(Nc3cccc(Cl)c3)c2cc1OC [AG1478] | 4.06 |  | 4.32 | 5.75 | < 3.78 |  | < 3.78 | < 3.78 | 7.25 | 5.26 | 4.15 | 4.09 | < 3.78 | 6.39 | 6.69 | 4.46 |  |  |
| CCc1c2c(nc3ccc(OC(=O)N4CCC(N5CCCCC5)CC4)cc13)-c1cc3c(c(=O)n1C2)COC(=O)[C@]3(O)CC [CPT-11] | 4.5 | < 4.13 | 4.94 | 4.32 | 4.49 | 5.23 | 4.99 | 4.35 | < 4.13 | 4.62 | 6 | 5.18 | 5.5 | 4.22 | 5.18 | 4.84 |  |  |
| O=C(O)C1(C(=O)O)CCC1.[NH2-].[NH2-].[Pt+2] [Carboplatin] | 4.1 | 4.55 | 3.66 | 4.44 | 4.32 | 4.08 | 3.94 | 4.66 | 4.48 | 3.96 | 5 | 4.29 | 4.15 | 3.04 | 4.41 | 3.72 |  |  |
| N.N.[Cl][Pt][Cl] [Cisplatin] | 5.16 | 5.58 | 3.73 | 6.06 | 5.27 | 5.02 | 4.03 | 5.67 | 5.45 | 5.11 | 5.91 | 5 | 5.05 | 3.76 | 5.42 | 4.39 | < 3.3 |  |
| CC(=O)O[C@@]12CO[C@@H]1C[C@H](O)[C@@]1(C)C(=O)[C@H](O)C3=C(C)[C@@H](OC(=O)[C@H](O)[C@@H](NC(=O)OC(C)(C)C)c4ccccc4)C[C@@](O)([C@@H](OC(=O)c4ccccc4)[C@H]21)C3(C)C [Docetaxel] | 8.76 | 8.4 | 7.81 | 8.63 | 8.64 | 8.77 | 6.4 | 8.61 | 8.33 | 8.12 | 8.24 | 8.07 | 8.75 | 7.77 | 8.59 |  |  |  |
| COc1cccc2c1C(=O)c1c(O)c3c(c(O)c1C2=O)C[C@@](O)(C(=O)CO)C[C@@H]3O[C@H]1C[C@H](N)[C@@H](O)[C@H](C)O1 [Epirubicin] | 6.44 |  | 5.98 | 6.26 | 6.15 |  | 6.39 | 6.33 | 6.42 | 6.06 | 6.14 | 5.92 | 6.88 | 6.11 | 6.32 |  |  |  |
| O=c1[nH]cc(F)c(=O)[nH]1 [Fluorouracil] | 4.34 |  | 2.66 | 4.77 | 3.62 |  | 2.53 | 4.04 | 3.9 | 3.96 | 3.18 | 2.97 | 4.15 | 3.45 | 5.37 | 3.51 |  |  |
| COc1cc2ncnc(Nc3ccc(F)c(Cl)c3)c2cc1OCCCN1CCOCC1 [Gefitinib] | 4.76 |  | 4.72 | 6.45 | 4.72 |  | 5.11 | 4.53 | 6.57 | 5.19 | 5.17 | < 4.48 | 4.94 | 5.94 | 6.16 |  | 5.73 |  |
| Nc1ccn([C@@H]2O[C@H](CO)[C@@H](O)C2(F)F)c(=O)n1 [Gemcitabine] | 5.66 |  | 2.85 | 4.82 | 7.01 |  | 6.44 | 5.07 | 7.04 | 6.76 | 6.47 | 7.49 | 7.64 | 3.54 | 7.08 | 6.79 |  |  |
| O=C(O)C(=O)O.[NH-][C@@H]1CCCC[C@H]1[NH-].[Pt+2] [Oxaliplatin] | 4.74 | < 3.2 | 3.54 | 5.27 |  | 5.21 | 4.39 | 5.85 | 4.68 | 5.35 |  | 4.46 | 5.65 | 3.83 | 5.35 |  |  |  |
| CC(=O)O[C@H]1C(=O)[C@@]2(C)[C@H]([C@H](OC(=O)c3ccccc3)[C@]3(O)C[C@H](OC(=O)[C@H](O)[C@@H](NC(=O)c4ccccc4)c4ccccc4)C(C)=C1C3(C)C)[C@]1(OC(C)=O)CO[C@@H]1C[C@@H]2O [Paclitaxel] | 8.38 | 7.66 | 7.99 | 8.1 | 8.06 | 8.04 | 6.64 | 8.05 | 7.84 | 7.95 | 7.71 | 7.65 | 8.35 | 7.93 | 8.08 | 7.95 |  |  |
| CC(C)[C@H](CO)Nc1nc(Nc2cccc(Cl)c2)c2ncn(C(C)C)c2n1 [Purvalanol A] | < 3.78 |  | 4.26 | 4.02 |  |  | 4.69 | 4.63 |  | 4.7 | < 3.78 |  | 4.6 |  | 4.74 | 3.87 |  | 4.57 |
| CO[C@H]1C[C@@H]2CC[C@@H](C)[C@@](O)(O2)C(=O)C(=O)N2CCCC[C@H]2C(=O)O[C@H]([C@H](C)C[C@@H]2CC[C@@H](O)[C@H](OC)C2)CC(=O)[C@H](C)/C=C(\C)[C@@H](O)[C@@H](OC)C(=O)[C@H](C)C[C@H](C)/C=C/C=C/C=C/1C [Rapamycin] | 4.35 |  | 9.57 | 8.24 | 4.75 |  | 6.04 | 7.78 |  | 6.7 | 4.84 | 3.85 | 4.24 | < 3.78 | 5.44 | 7.82 |  | 7.17 |
| CNC(=O)c1cc(Oc2ccc(NC(=O)Nc3ccc(Cl)c(C(F)(F)F)c3)cc2)ccn1 [Sorafenib] | < 3 |  | 4.54 | 4.14 |  |  | 5.83 | 4.49 |  | 4.27 | 4.32 |  | 4.33 |  | 4.46 | 4.22 |  | 4.2 |
| CC/C(=C(\c1ccccc1)c1ccc(OCCN(C)C)cc1)c1ccccc1 [Tamoxifen] | < 3.78 |  | 6.78 | 4.55 |  |  | 5.05 | 4.36 | 5.84 | < 3.78 | 4.37 | 4.51 | 4.32 | 4.72 | < 3.78 | 4.46 |  |  |
| CC[C@@]1(O)C(=O)OCc2c1cc1n(c2=O)Cc2cc3c(CN(C)C)c(O)ccc3nc2-1 [Topotecan] | 4.8 |  | 6.94 | 6.08 | 7.66 |  | 7.2 | 6.51 | 4.63 | 5.8 | 7.82 | 7.65 | 7.87 | 6.59 | 6.67 | 6.4 | 6.12 |  |
